Experimental data published in ChEMBL document CHEMBL1201862, “PubChem BioAssay data set” (2004).
Counter-ions that a name gives are not always drawn.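 Interpolation was linear, between the two tested concentrations surrounding the appropriate level; five concentrations were tested over 48 hours in 96-well plates. GI50: concentration for 50% inhibition of growth.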 Activity calls are given as the source filed them. Rule as the data show it: active = GI50 up to about 1.1 µM and inactive = higher.

How the values were obtained:
Assay in all cases: NCI anticancer screen, dose series, 48 h
[1] = system: A549
[2] = system: BT-549
[3] = system: COLO 205
[4] = system: LOX IMVI
[5] = system: NCI-H23
[6] = system: NCI-H522
[7] = system: OVCAR-3
[8] = system: OVCAR-4
[9] = system: RPMI-8226
[10] = system: SF-295
[11] = system: SK-MEL-5
[12] = system: SK-OV-3
[13] = system: SNB-19
[14] = system: SNB-75
[15] = system: TK-10
[16] = system: UACC-62
[17] = system: CAKI-1
[18] = system: HL-60
[19] = system: NCI-H460
[20] = system: Hs-578T

| Structure (SMILES) | GI50 [1] | GI50 [2] | GI50 [3] | GI50 [4] | GI50 [5] | GI50 [6] | GI50 [7] | GI50 [8] | GI50 [9] | GI50 [10] | GI50 [11] | GI50 [12] | GI50 [13] | GI50 [14] | GI50 [15] | GI50 [16] | GI50 [17] | GI50 [18] | GI50 [19] | GI50 [20] |
| --- | --- | --- | --- | --- | --- | --- | --- | --- | --- | --- | --- | --- | --- | --- | --- | --- | --- | --- | --- | --- |
| CCOC(=O)N/N=C(\Cc1ccc([N+](=O)[O-])cc1)OCC | > 100 µM (inactive) | > 100 µM (inactive) | > 100 µM (inactive) | > 100 µM (inactive) | > 100 µM (inactive) | > 100 µM (inactive) | > 100 µM (inactive) | > 100 µM (inactive) | > 100 µM (inactive) | > 100 µM (inactive) | > 100 µM (inactive) | > 100 µM (inactive) | > 100 µM (inactive) | > 100 µM (inactive) | > 100 µM (inactive) | > 100 µM (inactive) |  |  |  |  |
| C#CCN(N=O)C(=O)NCCCCC(NC(=O)OCc1ccccc1)C(=O)OCc1ccccc1 (centres undefined) |  |  |  | 14.5 µM (inactive) | 34.6 µM (inactive) | 15.3 µM (inactive) | 25.5 µM (inactive) | > 100 µM (inactive) | 31.9 µM (inactive) | > 100 µM (inactive) | 62.4 µM (inactive) | > 100 µM (inactive) | > 100 µM (inactive) | 46.3 µM (inactive) | > 100 µM (inactive) | 30.6 µM (inactive) | 24 µM (inactive) | 29.9 µM (inactive) | 98.2 µM (inactive) |  |
| O=C1C(C(O)(C(F)(F)F)C(F)(F)F)CCC1C(O)(C(F)(F)F)C(F)(F)F (centres undefined) | 1.91 µM (inactive) |  | 0.0481 µM (active) | 0.594 µM (active) | 0.769 µM (active) | 1.29 µM (inactive) | 0.918 µM (active) | 1.18 µM (inactive) | 0.142 µM (active) | 0.849 µM (active) | 1.72 µM (inactive) | 23 µM (inactive) | 17.9 µM (inactive) | 0.234 µM (active) | 42.1 µM (inactive) | 1.78 µM (inactive) | 0.341 µM (active) | 1.16 µM (inactive) | 8.83 µM (inactive) | 1.37 µM (inactive) |
| C1CSCCSS[C@@H]2CCCCC2SC1 (some centres undefined) | > 100 µM (inactive) | > 100 µM (inactive) | > 100 µM (inactive) | > 100 µM (inactive) | > 100 µM (inactive) | > 100 µM (inactive) | > 100 µM (inactive) | > 100 µM (inactive) |  | > 100 µM (inactive) | > 100 µM (inactive) | > 100 µM (inactive) | > 100 µM (inactive) | > 100 µM (inactive) | > 100 µM (inactive) | > 100 µM (inactive) |  | 56.6 µM (inactive) | > 100 µM (inactive) |  |
| COc1ccc([C@@]23OC[C@@H]4[C@@H](OC[C@@H]42)c2cc(OC)c(OC)cc23)cc1OC | > 100 µM (inactive) | > 100 µM (inactive) | > 100 µM (inactive) | > 100 µM (inactive) | > 100 µM (inactive) | > 100 µM (inactive) | > 100 µM (inactive) | > 100 µM (inactive) | > 100 µM (inactive) | > 100 µM (inactive) | > 100 µM (inactive) | > 100 µM (inactive) | > 100 µM (inactive) | > 100 µM (inactive) | > 100 µM (inactive) | > 100 µM (inactive) | > 100 µM (inactive) | > 100 µM (inactive) | > 100 µM (inactive) |  |
| N#C/C(=C/c1ccc([N+](=O)[O-])o1)c1ccccc1 | > 100 µM (inactive) |  | > 100 µM (inactive) | > 100 µM (inactive) | > 100 µM (inactive) | > 100 µM (inactive) | > 100 µM (inactive) | > 100 µM (inactive) | > 100 µM (inactive) | > 100 µM (inactive) | > 100 µM (inactive) | > 100 µM (inactive) | > 100 µM (inactive) | 97.7 µM (inactive) | > 100 µM (inactive) | > 100 µM (inactive) | > 100 µM (inactive) | > 100 µM (inactive) | > 100 µM (inactive) |  |
| COC(=O)c1c(C)cccc1C1CN=NC12Cc1ccc(C)cc1C2=O (centres undefined) | 33.5 µM (inactive) |  |  | 28.6 µM (inactive) | 39.2 µM (inactive) | 29.4 µM (inactive) | 38.6 µM (inactive) | 48.8 µM (inactive) | 25.6 µM (inactive) | 65.9 µM (inactive) | 17.5 µM (inactive) |  | 38.1 µM (inactive) | 57.5 µM (inactive) | > 100 µM (inactive) | 32.6 µM (inactive) | > 100 µM (inactive) | 21.6 µM (inactive) | 15 µM (inactive) | 39.4 µM (inactive) |
| COc1ccc(C2=C(Cl)C(=O)O/C2=C\c2ccc(OC)c(Br)c2)cc1Cl | 33.3 µM (inactive) |  | > 100 µM (inactive) | 58.9 µM (inactive) | 16.3 µM (inactive) | 25.6 µM (inactive) | 23 µM (inactive) | > 100 µM (inactive) | > 100 µM (inactive) | 15.7 µM (inactive) | > 100 µM (inactive) | 37.1 µM (inactive) | 31.8 µM (inactive) | > 100 µM (inactive) | 21.5 µM (inactive) | 22.8 µM (inactive) | 36.1 µM (inactive) | > 100 µM (inactive) | 27.7 µM (inactive) | 27.4 µM (inactive) |
| C/C(CC(=O)Nc1cccc(C)c1C)=N\NC(N)=S | > 100 µM (inactive) |  | > 100 µM (inactive) | > 100 µM (inactive) | > 100 µM (inactive) | > 100 µM (inactive) | > 100 µM (inactive) | > 100 µM (inactive) | 40.8 µM (inactive) | > 100 µM (inactive) | > 100 µM (inactive) | > 100 µM (inactive) | > 100 µM (inactive) | > 100 µM (inactive) | > 100 µM (inactive) | > 100 µM (inactive) | > 100 µM (inactive) | > 100 µM (inactive) | > 100 µM (inactive) |  |
| N#CC(=N)c1ncn(CCO)c1NC(=O)C(F)(F)F | > 100 µM (inactive) |  | > 100 µM (inactive) | > 100 µM (inactive) | > 100 µM (inactive) | > 100 µM (inactive) | > 100 µM (inactive) | > 100 µM (inactive) | > 100 µM (inactive) | > 100 µM (inactive) | > 100 µM (inactive) | > 100 µM (inactive) | > 100 µM (inactive) | > 100 µM (inactive) | > 100 µM (inactive) | > 100 µM (inactive) | > 100 µM (inactive) | > 100 µM (inactive) | > 100 µM (inactive) | > 100 µM (inactive) |
| C[Si](C)(C)c1ccc(-c2c3ccc(-c4cc(Br)cc(Br)c4)nc3nc3nc(-c4cc(Br)cc(Br)c4)ccc23)cc1 | > 100 µM (inactive) | > 100 µM (inactive) | > 100 µM (inactive) |  | > 100 µM (inactive) | > 100 µM (inactive) | > 100 µM (inactive) | > 100 µM (inactive) | > 100 µM (inactive) | > 100 µM (inactive) | > 100 µM (inactive) | > 100 µM (inactive) | > 100 µM (inactive) | > 100 µM (inactive) | > 100 µM (inactive) | > 100 µM (inactive) | > 100 µM (inactive) |  | > 100 µM (inactive) |  |
| c1ccc2c(c1)c1ccccc1c1n[se]nc21 | 52.6 µM (inactive) |  | > 100 µM (inactive) | > 100 µM (inactive) | > 100 µM (inactive) | > 100 µM (inactive) |  | > 100 µM (inactive) | > 100 µM (inactive) | 43.9 µM (inactive) | > 100 µM (inactive) | 26 µM (inactive) | 35.6 µM (inactive) | 28.1 µM (inactive) | 48.4 µM (inactive) | > 100 µM (inactive) | 36.5 µM (inactive) | > 100 µM (inactive) | 75.3 µM (inactive) |  |
| O=C(NC/C(Cl)=C/Cl)Nc1c2ccccc2nc2ccccc12 | > 100 µM (inactive) |  | 29 µM (inactive) | 61.2 µM (inactive) | > 100 µM (inactive) | > 100 µM (inactive) | 44.5 µM (inactive) | 35.4 µM (inactive) | 53.3 µM (inactive) | > 100 µM (inactive) | 57.9 µM (inactive) | > 100 µM (inactive) | > 100 µM (inactive) | > 100 µM (inactive) | > 100 µM (inactive) | > 100 µM (inactive) | > 100 µM (inactive) |  | 60.3 µM (inactive) | > 100 µM (inactive) |
| CC12CCCC(O)C1CCC1=CC3(CCC12)SCCS3 (centres undefined) | > 10 µM (inactive) | > 10 µM (inactive) | > 10 µM (inactive) | > 10 µM (inactive) | > 10 µM (inactive) | > 10 µM (inactive) | > 10 µM (inactive) | > 10 µM (inactive) | > 10 µM (inactive) | > 10 µM (inactive) | > 10 µM (inactive) | > 10 µM (inactive) | > 10 µM (inactive) | > 10 µM (inactive) | > 10 µM (inactive) | > 10 µM (inactive) | > 10 µM (inactive) |  |  |  |
| NC1=C2C(Br)=CN([C@@H]3O[C@H](CO)[C@@H](O)[C@@H]3O)C2C(=O)N=N1 (some centres undefined) | 2.67 µM (inactive) |  | 7.93 µM (inactive) | 1.03 µM (active) | 5.58 µM (inactive) | 6.05 µM (inactive) | 0.811 µM (active) | 2.44 µM (inactive) | 1.94 µM (inactive) | 15.8 µM (inactive) | 11.3 µM (inactive) | 30.5 µM (inactive) | 43.1 µM (inactive) | 3.78 µM (inactive) | 15.4 µM (inactive) | 16.6 µM (inactive) | 0.396 µM (active) | 0.223 µM (active) | 1.49 µM (inactive) |  |
| CN(C)CCOC(c1ccccc1)c1ccccc1 [DIPHENHYDRAMINE HYDROCHLORIDE] | > 100 µM (inactive) |  | > 100 µM (inactive) | > 100 µM (inactive) | > 100 µM (inactive) | > 100 µM (inactive) | > 100 µM (inactive) | > 100 µM (inactive) | 84.3 µM (inactive) |  | > 100 µM (inactive) |  |  |  | > 100 µM (inactive) |  | > 100 µM (inactive) | > 100 µM (inactive) | > 100 µM (inactive) | 66.7 µM (inactive) |
